The NIST ThermoML archive (doi:10.1016/j.jct.2018.12.018)
“And” between values parts separate entries of the source, which are not always exact repeats. Identical values can stand only once.

Conditions: Liquid; for speed of sound: Frequency=3 MHz, Single path-length method; for mass density: Vibrating tube method

CC(C)O [propan-2-ol]
Conditions	mass density	speed of sound [m/s]
293.15 K, 100 kPa	785.4 kg/m3 and 785.46 kg/m3	1157.5
293.15 K, 1000 kPa	786.2 kg/m3	–
293.15 K, 5000 kPa	789.6 kg/m3	–
293.15 K, 10000 kPa	793.6 kg/m3	–
293.15 K, 15000 kPa	797.4 kg/m3	–
293.15 K, 20000 kPa	801.1 kg/m3	–
293.15 K, 25000 kPa	804.5 kg/m3	–
293.15 K, 30000 kPa	807.9 kg/m3	–
293.15 K, 35000 kPa	811.2 kg/m3	–
293.15 K, 40000 kPa	814.2 kg/m3	–
293.15 K, 45000 kPa	817.2 kg/m3	–
293.15 K, 50000 kPa	820.1 kg/m3	–
293.15 K, 55000 kPa	822.9 kg/m3	–
293.15 K, 60000 kPa	825.6 kg/m3	–
293.15 K, 65000 kPa	828.2 kg/m3	–
293.15 K, 70000 kPa	830.8 kg/m3	–
293.15 K, 80000 kPa	835.8 kg/m3	–
293.15 K, 90000 kPa	840.5 kg/m3	–
293.15 K, 100000 kPa	845 kg/m3	–
293.15 K, 110000 kPa	849.4 kg/m3	–
293.15 K, 120000 kPa	853.5 kg/m3	–
293.15 K, 130000 kPa	857.6 kg/m3	–
293.15 K, 140000 kPa	861.2 kg/m3	–
298.15 K, 100 kPa	781.27 kg/m3 and 781.4 kg/m3	1139.7
298.15 K, 1000 kPa	782.1 kg/m3	–
298.15 K, 5000 kPa	785.6 kg/m3	–
298.15 K, 10000 kPa	789.8 kg/m3	–
298.15 K, 15000 kPa	793.7 kg/m3	–
298.15 K, 20000 kPa	797.3 kg/m3	–
298.15 K, 25000 kPa	800.9 kg/m3	–
298.15 K, 30000 kPa	804.3 kg/m3	–
298.15 K, 35000 kPa	807.7 kg/m3	–
298.15 K, 40000 kPa	810.8 kg/m3	–
298.15 K, 45000 kPa	813.8 kg/m3	–
298.15 K, 50000 kPa	816.7 kg/m3	–
298.15 K, 55000 kPa	819.7 kg/m3	–
298.15 K, 60000 kPa	822.5 kg/m3	–
298.15 K, 65000 kPa	825.2 kg/m3	–
298.15 K, 70000 kPa	827.6 kg/m3	–
298.15 K, 80000 kPa	832.8 kg/m3	–
298.15 K, 90000 kPa	837.5 kg/m3	–
298.15 K, 100000 kPa	842.3 kg/m3	–
298.15 K, 110000 kPa	846.4 kg/m3	–
298.15 K, 120000 kPa	850.8 kg/m3	–
298.15 K, 130000 kPa	854.8 kg/m3	–
298.15 K, 140000 kPa	858.7 kg/m3	–
303.15 K, 100 kPa	777 kg/m3	1122.6
313.15 K, 100 kPa	768.21 kg/m3 and 768.2 kg/m3	1087.2
313.15 K, 1000 kPa	769.1 kg/m3	–
313.15 K, 5000 kPa	773 kg/m3	–
313.15 K, 10000 kPa	777.4 kg/m3	–
313.15 K, 15000 kPa	781.8 kg/m3	–
313.15 K, 20000 kPa	785.7 kg/m3	–
313.15 K, 25000 kPa	789.5 kg/m3	–
313.15 K, 30000 kPa	793.3 kg/m3	–
313.15 K, 35000 kPa	796.9 kg/m3	–
313.15 K, 40000 kPa	800.1 kg/m3	–
313.15 K, 45000 kPa	803.4 kg/m3	–
313.15 K, 50000 kPa	806.5 kg/m3	–
313.15 K, 55000 kPa	809.6 kg/m3	–
313.15 K, 60000 kPa	812.5 kg/m3	–
313.15 K, 65000 kPa	815.4 kg/m3	–
313.15 K, 70000 kPa	818.2 kg/m3	–
313.15 K, 80000 kPa	823.4 kg/m3	–
313.15 K, 90000 kPa	828.5 kg/m3	–
313.15 K, 100000 kPa	833.1 kg/m3	–
313.15 K, 110000 kPa	837.8 kg/m3	–
313.15 K, 120000 kPa	842.1 kg/m3	–
313.15 K, 130000 kPa	846.4 kg/m3	–
313.15 K, 140000 kPa	850.4 kg/m3	–
323.15 K, 100 kPa	759.07 kg/m3	1051.8
333.15 K, 100 kPa	749.42 kg/m3 and 749.4 kg/m3	1015.3
333.15 K, 1000 kPa	750.5 kg/m3	–
333.15 K, 5000 kPa	754.9 kg/m3	–
333.15 K, 10000 kPa	760 kg/m3	–
333.15 K, 15000 kPa	764.9 kg/m3	–
333.15 K, 20000 kPa	769.3 kg/m3	–
